In brackets after ≈: the same amount, converted by molar mass. Where two headings read alike, the source gives them in different places. Marks after values point to notes of the source that are not given here.
Key:
ABTS assay = format: biochemical; details: 50 μM, methanolic solutions, 7 min of reaction time
Description: ABTS assay was conducted according to the procedure of Re et al.. […] The absorbance of the solutions was measured with a UV–Vis spectrophotometer at 734 nm against methanol (the blank). The ability to scavenge ABTS^•+ cation radicals was expressed as the %I of ABTS^•+ and calculated according to the aforementioned equation.

[1] = FRAP assay (ferric-reducing antioxidant power); format: biochemical; parameters: key: (-): Negative values were obtained for these acids; details: concentration of 50 μM, methanolic solutions
Description: FRAP assay was carried out as described in [42]. […] After 8 min of incubation at 23 °C, the absorbance at 595 nm was measured against the blank (containing 0.4 mL of methanol instead of the sample). Ferric-reducing antioxidant activity was expressed as Fe(II) ion equivalents (μM) using the calibration curve obtained for FeSO4 (the standard curve equation: y = 3.4303x − 0.1058; R^2 = 0.9984).

[2] = test system: Salmonella enteritidis (NCTC 4776); assay: MIC by serial dilution in agar medium; format: cell-based; details: Salmonella enterica; Salmonella enteritidis; read-out: MIC
Description: (§1) The following bacterial strains were used in this study: Escherichia coli (PCM 2857), Pseudomonas aeruginosa (PCM 2720), Bacillus subtilis (PCM 2850), Staphylococcus aureus (PCM 2267), Salmonella enteritidis (NCTC 4776), and Candida albicans (PCM 2566-FY). The microbial strains were bought from the Polish Collection of Microorganisms (Wroclaw, Poland) or the American Type Culture Collection.
(§2) The MIC (minimal inhibitory concentration) was determined by serial dilution of the tested compound in an agar medium, to which the appropriate inoculum of microorganisms was then added and incubated. Escherichia coli, Pseudomonas aeruginosa, Staphylococcus aureus, Bacillus subtilis, Salmonella enteritidis, and Candida albicans were grown overnight and then resuspended in physiological saline to an optical density at 600 nm (OD = 600) of 0.60, corresponding to 5.0 × 10^8 CFU/mL. Bacteria (0.1 mL of the reconstituted suspension) were seeded onto sterile Mueller–Hinton agar plates, to which previously suitable amounts of the tested compounds were added to reach the desired concentration. Tested chemicals were dissolved in DMSO solution. Negative controls were agar plates, to which DMSO was added, while positive controls were plates with gentamycin (in the case of bacteria) or flucanozole (in the case of fungi). The plates were incubated at 37 °C for 24 h. The lowest concentration without visible bacterial growth was determined as the MIC.

[3] = test system: Bacillus subtilis (PCM 2850); assay: MIC by serial dilution in agar medium; format: cell-based; details: read-out: MIC
Description: as §1, with “Collection. Bacteria (0.1 mL of the reconstituted suspension) were seeded onto sterile Mueller–Hinton agar plates (Biomaxima), to which previously suitable amounts of the tested compounds were added to give the desired concentration.” for “Collection.”
as §2

[4] = test system: Candida albicans (PCM 2566-FY); assay: MIC by serial dilution in agar medium; format: cell-based; details: read-out: MIC
Description: as §1, with “Collection. Bacteria (0.1 mL of the reconstituted suspension) were seeded onto sterile Mueller–Hinton agar plates (Biomaxima), to which previously suitable amounts of the tested compounds were added to give the desired concentration.” for “Collection.”
as §2

[5] = test system: Escherichia coli (PCM 2857); assay: MIC by serial dilution in agar medium; format: cell-based; details: read-out: MIC
Description: as §1, with “Collection. Bacteria (0.1 mL of the reconstituted suspension) were seeded onto sterile Mueller–Hinton agar plates (Biomaxima), to which previously suitable amounts of the tested compounds were added to give the desired concentration.” for “Collection.”
as §2

[6] = test system: Pseudomonas aeruginosa (PCM 2720); assay: MIC by serial dilution in agar medium; format: cell-based; details: read-out: MIC
Description: as §1, with “Collection. Bacteria (0.1 mL of the reconstituted suspension) were seeded onto sterile Mueller–Hinton agar plates (Biomaxima), to which previously suitable amounts of the tested compounds were added to give the desired concentration.” for “Collection.”
as §2

[7] = test system: Staphylococcus aureus (PCM 2267); assay: MIC by serial dilution in agar medium; format: cell-based; details: read-out: MIC
Description: as §1, with “Collection. Bacteria (0.1 mL of the reconstituted suspension) were seeded onto sterile Mueller–Hinton agar plates (Biomaxima), to which previously suitable amounts of the tested compounds were added to give the desired concentration.” for “Collection.”
as §2

[8] = test system: E. coli, P. aeruginosa, S. aureus, B. subtilis, S. enteritidis, and C. albicans; assay: MIC, stated for all tested strains together; format: cell-based; details: all of the tested strains
Description: as §1, with “Collection. Bacteria (0.1 mL of the reconstituted suspension) were seeded onto sterile Mueller–Hinton agar plates (Biomaxima), to which previously suitable amounts of the tested compounds were added to give the desired concentration.” for “Collection.”
as §2

[9] = Cytotoxicity, neutral red (NR) assay; format: cell-based, human; details: human, 48 h treatment, neutral red assay
Description: Briefly, MCF-7 cells were cultured in EMEM (Biological Industries, Israel) medium supplemented with 10% fetal calf serum (Gibco). MDA-MB-231 cells were cultured in Leibovitz‘s L15 (Biological Industries, Beit HaEmek, Israel) medium supplemented with 10% fetal calf serum (Gibco). The MCF-7 cells were incubated in a 5% CO2 atmosphere at 37 °C, whereas the MDA-231 cells were incubated in a 100% air atmosphere at 37 °C.
Cytotoxicity evaluation was conducted to assess the impact of hydroxybenzoic acids on the proliferation of MCF-7 and MDA-MB-231 cells, which was measured via neutral red (NR) assay. In brief, cells were seeded in 96-well microplates (TPP, Switzerland) at a density of 2 × 10^4 cells/well in 100 μL of culture medium. At least three independent experiments in six replicate wells were conducted per concentration. Twenty-four hours after cell seeding, cells were treated with increasing concentrations of hydroxybenzoic acids (0.02–5 mM) for forty-eight hours. After treatment, cells were incubated for 3 h at 37 °C with 100 µL of neutral red solution (stock solution of NR) (Sigma-Aldrich), and then 5 mg/mL of PBS was diluted 1:100 in cell culture medium, incubated for 12 h at 37 °C, and centrifuged to remove any undissolved NR powder. […] After 15 min of gentle shaking, optical density was read at 540 nm with an Infinite M200 plate reader spectrophotometer (Tecan, Austria).

[10] = Lipophilicity via RP-HPLC; format: physicochemical
Description: The analyses were carried out on the following chromatographic columns: RP-18e Purospher STAR (C18), 150 mm × 4.0 mm, 5 µm, (Merck, Darmstadt, Germany); RP-8e Purospher STAR (C8), 150 mm × 4.6 mm, 5 µm, (Merck, Darmstadt, Germany); Zorbax Eclipse XDB-CN (CN), 150 mm × 4.6 mm, 5 µm, (Agilent Technologies, Santa Clara, CA, USA); Nucleosil Phenyl (PHE), 250 mm × 4.6 mm, 7 µm, (Supelco, Bellefonte, PA, USA); and Regis Rexchrom IAM.PC.DD.2 (IAM), 100 mm × 4.6 mm, 10 µm, (Regis Technologies Inc., Morton Grave, IL, USA). The experimental conditions and the calculations were as described in [46].

[11] = CABTS = 7 mM, t = 6 min, ref 73; read-out: ABTS, IC50; cited from earlier work
[12] = C = 0,001 mg/mL, λ = 593 nm, t = 30 min; cited from earlier work
[13] = ref 102; cited from earlier work
[14] = cited from earlier work

Structure (SMILES): O=C(O)c1ccc(O)cc1O [2,4-DHB, 2,4-Dihydroxybenzoic acid]
- Inhibition of ABTS•+ radicals (%I) (ABTS assay): 16.17%
- FRAP [1]: (-) *
- MIC [2]: 2000 µg/mL (≈ 13 mM)
- MIC [3]: 2000 µg/mL (≈ 13 mM)
- MIC [4]: 2000 µg/mL (≈ 13 mM)
- MIC [5]: 2000 µg/mL (≈ 13 mM)
- MIC [6]: 2000 µg/mL (≈ 13 mM)
- MIC [7]: 2000 µg/mL (≈ 13 mM)
- MIC [8]: 2000 µg/mL (≈ 13 mM)
- IC50 at 48 h ([9]; read-out: Cytotoxicity (mM) in Cell Line MCF-7, IC50): > 5 mM
- IC50 at 48 h ([9]; read-out: Cytotoxicity (mM) in Cell Line MDA-MB-231, IC50): 4.77 mM
- log kw ([10]; C8 column): 1.81
- ϕ0 ([10]; C8 column): 1.38
- log kw ([10]; C18 column): 2.66
- ϕ0 ([10]; C18 column): 0.57
- log kw ([10]; CN column): 2.06
- ϕ0 ([10]; CN column): 1.15
- log kw ([10]; IAM column): 1.14
- ϕ0 ([10]; IAM column): 1.00
- log kw ([10]; PHE column): 1.39
- ϕ0 ([10]; PHE column): 1.05
- IC50 [11]: 0.169 mM
- FRAP [12]: ≈ 0.012 (C = 0,001 mg/mL), λ = 593 nm, t = 30 min) [73] μM Fe^2+
- LogPexp. [13]: 1.63 [102]
- pKaexp. ([14]; at 25 °C): 3.11
- pKaexp. ([14]; ref 104): 3.11
- pKaexp. ([14]; ref 105): 3.1
